Where two headings read alike, the source gives them in different places.
What was measured:
Test in all cases: MTT cancer cell growth inhibition
Format in all cases: cell-based
[1] = system: DU145 (human prostate cancer cells); conditions: MTT
Method in brief: (§1)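 Using a 72 h MTT format, triplicate wells of 1500 cells received compound concentrations from 10^−5 to 10^−10 M. Formazan was read at 570 nm after DMSO dissolution, and GI50 was derived from viability.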

[2] = system: lncap (prostate cancer cells); conditions: MTT
Method in brief: as §1

[3] = system: U937 (human leukemia cells); conditions: MTT
Method in brief: as §1

[4] = system: A549 (human lung cancer cells); conditions: MTT
Method in brief: as §1

[5] = system: KBM-5 (human chronic myelogenous leukemia); conditions: MTT, 72 hours incubation, KBM-5 cells, read-out: GI50 KBM-5
Method in brief: as §1

[6] = system: PANC-1 (Pac-1, human pancreatic cancer cells); conditions: MTT
Method in brief: as §1

[7] = system: Hela (human cervical cancer cells); conditions: MTT
Method in brief: as §1

[8] = system: KBM5-T315I (human chronic myelogenous leukemia); conditions: MTT, 72 hours incubation, KBM5-T315I cells, read-out: GI50 KBM5-T315I
Method in brief: as §1

[9] = system: SGC-7901 (human gastric cancer cells); conditions: MTT, 72 hours incubation, SGC-7901 cells, read-out: GI50 SGC-7901
Method in brief: as §1

[10] = system: H1975 (non-small cell lung adenocarcinoma); conditions: MTT, 72 hours incubation, H1975 cells, read-out: GI50 H1975
Method in brief: as §1

[11] = system: Huh-7 (human hepatoma cells); conditions: MTT, 72 hours incubation, Huh-7 cells, read-out: GI50 Huh-7
Method in brief: as §1

[12] = system: MOLT-4 (human acute lymphoblastic leukemia cells); conditions: MTT
Method in brief: as §1

[13] = system: MCF-7 (human breast cancer cells)
Method in brief: as §1

[14] = system: BGC-823 (human gastric cancer cells); conditions: MTT
Method in brief: as §1

[15] = system: MDA-MB-231 (breast cancer cells)
Method in brief: as §1

[16] = Homo sapiens, DU-145, 72 h, DU145 cells, 72 hours incubation, read-out: GI50 Du1
[17] = Homo sapiens, LNCaP, 72 h, lncap cells, 72 hours incubation, read-out: GI50 lnca
[18] = Homo sapiens, U-937, 72 h, U937 cells, 72 hours incubation, read-out: GI50 U93
[19] = Homo sapiens, A549, 72 h, A549 cells, 72 hours incubation, read-out: GI50 A54
[20] = Homo sapiens, PANC-1, 72 h, PANC-1 cells, 72 hours incubation, read-out: GI50 PAN
[21] = Homo sapiens, HeLa, 72 h, Hela cells, 72 hours incubation, read-out: GI50 Hela
[22] = Homo sapiens, MOLT-4, 72 h, MOLT-4 cells, 72 hours incubation, read-out: GI50 Mol
[23] = Homo sapiens, MCF7, 72 h, MCF-7 cells, 72 hours incubation, read-out: GI50 MCF
[24] = Homo sapiens, BGC-823, 72 h, BGC-823 cells, 72 hours incubation, read-out: GI50 BG
[25] = Homo sapiens, MDA-MB-231, 72 h, read-out: GI50 MDA-MB-231, MTT, 72 hours incubation, MDA-MB-231 cells
[26] = 72 hours incubation, read-out: GI50 Du1
[27] = 72 hours incubation, read-out: GI50 BG
[28] = Homo sapiens, DU-145, 72 h, 72 hours incubation, read-out: GI50 Du1
[29] = Homo sapiens, LNCaP, 72 h, 72 hours incubation, read-out: GI50 lnca
[30] = Homo sapiens, U-937, 72 h, 72 hours incubation, read-out: GI50 U93
[31] = Homo sapiens, A549, 72 h, 72 hours incubation, read-out: GI50 A54
[32] = Homo sapiens, PANC-1, 72 h, 72 hours incubation, read-out: GI50 PAN
[33] = Homo sapiens, HeLa, 72 h, 72 hours incubation, read-out: GI50 Hela
[34] = Homo sapiens, MOLT-4, 72 h, 72 hours incubation, read-out: GI50 Mol
[35] = Homo sapiens, MCF7, 72 h, 72 hours incubation, read-out: GI50 MCF
[36] = Homo sapiens, BGC-823, 72 h, 72 hours incubation, read-out: GI50 BG

| SMILES | GI50 [1, 16] [nM] | GI50 [2, 17] [nM] | GI50 [3, 18] [nM] | GI50 [4, 19] [nM] | GI50 ([5]; Homo sapiens, KBM5, 72 h) [nM] | GI50 [6, 20] [nM] | GI50 ([8]; Homo sapiens, 72 h) [nM] | GI50 ([9]; Homo sapiens, SGC-7901, 72 h) [nM] | GI50 ([10]; Homo sapiens, NCI-H1975, 72 h) [nM] | GI50 ([11]; Homo sapiens, Huh-7, 72 h) [nM] | GI50 [15, 25] [nM] | GI50 [1, 28] [nM] | GI50 [2, 29] [nM] | GI50 [3, 30] [nM] | GI50 [4, 31] [nM] | GI50 [6, 32] [nM] | GI50 [7, 33] [nM] | GI50 [12, 34] [nM] | GI50 [13, 35] [nM] | GI50 [14, 36] [nM] | further results |
| --- | --- | --- | --- | --- | --- | --- | --- | --- | --- | --- | --- | --- | --- | --- | --- | --- | --- | --- | --- | --- | --- |
| C/C=C1\NC(=O)c2nc(ccc2SC)CNC(=O)C[C@@H](/C=C/CCSC=O)OC(=O)[C@H](C(C)C)NC1=O [Compound 168] | 50 | 20 | 40 | 80 | 22 | 60 | 36 | 34 | 66 | 56 | 12 | – | – | – | – | – | – | – | – | – | GI50 [7, 21]: 50 nM; GI50 [12, 22]: 100 nM; GI50 [13, 23]: 60 nM; GI50 [14, 24]: 10 nM |
| C/C=C1\NC(=O)c2nc(F)cc(n2)CNC(=O)C[C@@H](/C=C/CCSC(C)=O)OC(=O)[C@H](C(C)C)NC1=O [Compound 98] | – | – | – | – | – | – | – | – | – | – | – | – | – | – | – | – | – | – | – | – | GI50 [1, 26]: 40 nM; GI50 ([2]; 72 hours incubation, read-out: GI50 lnca): 20 nM; GI50 ([3]; 72 hours incubation, read-out: GI50 U93): 30 nM; GI50 ([4]; 72 hours incubation, read-out: GI50 A54): 600 nM; GI50 [5]: 29 nM; GI50 ([6]; 72 hours incubation, read-out: GI50 PAN): 80 nM; GI50 ([7]; 72 hours incubation, read-out: GI50 Hela): 50 nM; GI50 [8]: 58 nM; GI50 [9]: 36 nM; GI50 [10]: 81 nM; GI50 [11]: 28 nM; GI50 ([12]; 72 hours incubation, read-out: GI50 Mol): 20 nM; GI50 ([13]; 72 hours incubation, read-out: GI50 MCF): 30 nM; GI50 [14, 27]: 50 nM; GI50 ([15]; read-out: GI50 MDA-MB-231, MTT, 72 hours incubation, MDA-MB-231 cells): 37 nM |
| C/C=C1\NC(=O)c2nc(ccc2SC)CNC(=O)C[C@@H](/C=C/CCS)OC(=O)[C@H](C)NC1=O [Compound 232] | 50 | 30 | 90 | 30 | 8 | 10 | 43 | 63 | 56 | 21 | 23 | – | – | – | – | – | – | – | – | – | GI50 [7, 21]: 30 nM; GI50 [12, 22]: 50 nM; GI50 [13, 23]: 80 nM; GI50 [14, 24]: 50 nM |
| C/C=C1\NC(=O)c2nc(ccc2F)CNC(=O)C[C@@H](/C=C/CCSC(C)=O)OC(=O)[C@H](C)NC1=O [Example 63] | – | – | – | – | 93 | – | 57 | 51 | 34 | 49 | 49 | 50 | 40 | 30 | 50 | 90 | 90 | 40 | 50 | 50 | – |
| C/C=C1\NC(=O)c2cc(SC)cc(n2)CNC(=O)C[C@@H](/C=C/CCSC=O)OC(=O)[C@H](C(C)C)NC1=O [Compound 169] | 70 | 50 | 20 | 40 | 51 | 40 | 47 | 62 | 44 | 61 | 35 | – | – | – | – | – | – | – | – | – | GI50 [7, 21]: 20 nM; GI50 [12, 22]: 40 nM; GI50 [13, 23]: 70 nM; GI50 [14, 24]: 60 nM |
| C/C=C1\NC(=O)c2cc(F)cc(n2)CNC(=O)C[C@@H](/C=C/CCSC(C)=O)OC(=O)[C@H](C(C)C)NC1=O [Compound 94] | – | – | – | – | 61 | – | 35 | 41 | 34 | 33 | 33 | – | 30 | 30 | 40 | 80 | 60 | 30 | 30 | – | GI50 [1, 26]: 30 nM; GI50 [14, 27]: 30 nM |

More lines, in order of falling GI50 ([5]; Homo sapiens, KBM5, 72 h), values ahead:

| GI50 [1, 16] [nM] | GI50 [2, 17] [nM] | GI50 [3, 18] [nM] | GI50 [4, 19] [nM] | GI50 ([5]; Homo sapiens, KBM5, 72 h) [nM] | GI50 [6, 20] [nM] | GI50 ([8]; Homo sapiens, 72 h) [nM] | GI50 ([9]; Homo sapiens, SGC-7901, 72 h) [nM] | GI50 ([10]; Homo sapiens, NCI-H1975, 72 h) [nM] | GI50 ([11]; Homo sapiens, Huh-7, 72 h) [nM] | GI50 [15, 25] [nM] | GI50 [1, 28] [nM] | GI50 [2, 29] [nM] | GI50 [3, 30] [nM] | GI50 [4, 31] [nM] | GI50 [6, 32] [nM] | GI50 [7, 33] [nM] | GI50 [12, 34] [nM] | GI50 [13, 35] [nM] | GI50 [14, 36] [nM] | SMILES | further results |
| --- | --- | --- | --- | --- | --- | --- | --- | --- | --- | --- | --- | --- | --- | --- | --- | --- | --- | --- | --- | --- | --- |
| – | – | – | – | 91 | – | 31 | 25 | 27 | 38 | 38 | 30 | 30 | 20 | 20 | 30 | 90 | 30 | 30 | 60 | C/C=C1\NC(=O)c2nc(ccc2C)CNC(=O)C[C@@H](/C=C/CCSC(C)=O)OC(=O)[C@H](Cc2ccccc2)NC1=O [Compound 66] | – |
| – | – | – | – | 74 | – | 83 | 43 | 42 | 19 | 19 | 20 | 10 | 40 | 40 | 50 | 70 | 10 | 80 | 60 | C/C=C1\NC(=O)c2nc(ccc2F)CNC(=O)C[C@@H](/C=C/CCSC(=O)CCCCCCC)OC(=O)[C@H](C)NC1=O [Example 60] | – |
| – | – | – | – | 62 | – | 26 | 35 | 42 | 43 | 86 | 30 | 20 | 30 | 430 | 60 | 120 | 10 | 50 | 410 | C/C=C1\NC(=O)c2cccc(n2)CNC(=O)C[C@@H](/C=C/CCSC(=O)CCCCCCC)OC(=O)[C@H](C)NC1=O [Compound 11] | GI50 ([1]; Homo sapiens, DU-145, 72 h, 72 hours, present invention, read-out: GI50 Du145, a): 33 nM; GI50 ([2]; Homo sapiens, LNCaP, 72 h, 72 hours, present invention, read-out: GI50 lncap, a): 25 nM; GI50 ([3]; Homo sapiens, U-937, 72 h, 72 hours, present invention, read-out: GI50 U937, a): 35 nM; GI50 ([4]; Homo sapiens, A549, 72 h, 72 hours, present invention, read-out: GI50 A549, a): 430 nM; GI50 ([6]; Homo sapiens, PANC-1, 72 h, 72 hours, present invention, read-out: GI50 PANC-1, a): 60 nM; GI50 ([7]; Homo sapiens, HeLa, 72 h, 72 hours, present invention, read-out: GI50 Hela, a): 120 nM; GI50 ([12]; Homo sapiens, MOLT-4, 72 h, 72 hours, present invention, read-out: GI50 Molt-4, a): 17 nM; GI50 ([13]; Homo sapiens, MCF7, 72 h, 72 hours, present invention, read-out: GI50 MCF7, a): 50 nM; GI50 ([14]; Homo sapiens, BGC-823, 72 h, 72 hours, present invention, read-out: GI50 BGC823, a): 410 nM |
| – | – | – | – | 54 | – | 37 | 42 | 53 | 65 | 78 | 420 | 10300 | 11300 | 3800 | 42100 | 370 | 59700 | 490 | 53100 | C/C=C1\NC(=O)c2cccc(n2)CNC(=O)C[C@@H](/C=C/CCSC(C)=O)OC(=O)[C@H](Cc2ccc(O)cc2)NC1=O [Compound 18] | – |
